Assays:
5-HT2A receptor = target: T1, 5-HT2A receptor (Rattus norvegicus, UniProt P14842); assay: 5-HT2A receptor binding, rat brain frontal cortex membrane, tritiated ketanserine; details: read-out: Inhibition of receptor binding of the radioactive ligand (Ki), 5-HT2A
T1 construct: rat brain frontal cortex membrane preparation; from tissue; host or cells: rat brain frontal cortex membranes
Experimental: (§1) 4) 5-HT2A and 5-HT2C Receptor Binding Studies
(§2) 5-HT2A and 5-HT2C receptor binding was measured according to the methods described by Leysen et al. /Mol. Pharmacol., 21, 301 (1981)/and Pazos et al. /Eur. J. Pharmacol., 106, 539 (1985)/, respectively. 5-HT2A receptor binding was measured in rat brain frontal cortex membrane preparation using tritiated ketanserine /3-/2-(4-fluorobenzoyl)-1-piperidinyl/ethyl-2,4-(1H,3H)-quinazolinedione/ (60-90 Ci/mmole) as ligand. 5-HT2C receptor binding was measured in pig brain choroid plexus membrane-preparation using tritiated mesulergine /N'-/(8)-1,6-dimethylergoline-8-yl/-N,N-dimethylsulfamide (70-85 Ci/mmole) as the ligand. Non-specific binding to 5-HT2A and 5-HT2C receptors were determined in the presence of 10 micromoles of cyproheptadine /4-(5H-dibenzo/a,d/cycloheptene-5-ylidene)-1-methylpiperidine/and 1 micromole of mianserine /1,2,3,4,10,14b-hexahydro-2-methyldibenzo/c,f/pyrazino/1,2-a/azepine/, respectively. The final incubation volumes were 250 and 1000 microlitres. Samples were incubated for 15 and 30 minutes at 37° C. Incubation was stopped by adding 9 ml of ice-cold 50 mr- tris(hydroxymethyl)aminomethane hydrochloride (pH=7.7) to the reaction mixture. The samples were rapidly filtered through whatman GF/B glass fiber filters using reduced pressure. […] Radioactivity of the filters was determined by a scintillation spectrometer.

5-HT2C receptor = target: T2, 5-HT2C receptor (Sus scrofa, UniProt K7GSR7); assay: 5-HT2C receptor binding, pig brain choroid plexus membrane, tritiated mesulergine; details: read-out: Inhibition of receptor binding of the radioactive ligand (Ki), 5-HT2C
T2 construct: pig brain choroid plexus membrane-preparation; from tissue; host or cells: pig brain choroid plexus membranes
T2 sequence (K7GSR7 1-457): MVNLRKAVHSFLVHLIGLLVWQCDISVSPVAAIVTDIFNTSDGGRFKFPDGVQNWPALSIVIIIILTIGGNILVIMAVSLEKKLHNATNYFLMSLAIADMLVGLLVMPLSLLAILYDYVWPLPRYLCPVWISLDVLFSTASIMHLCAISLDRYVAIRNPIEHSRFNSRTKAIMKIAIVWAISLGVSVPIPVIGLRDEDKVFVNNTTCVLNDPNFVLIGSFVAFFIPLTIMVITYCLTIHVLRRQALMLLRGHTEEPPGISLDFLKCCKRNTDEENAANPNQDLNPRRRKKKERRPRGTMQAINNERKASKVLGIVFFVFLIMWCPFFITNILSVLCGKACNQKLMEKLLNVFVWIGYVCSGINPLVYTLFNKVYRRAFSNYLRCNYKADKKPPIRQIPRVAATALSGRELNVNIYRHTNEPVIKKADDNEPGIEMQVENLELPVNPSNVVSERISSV
Experimental: as §1, §2

[1] = system: isolated rat thoracic aorta; assay: Vascular relaxing effect in isolated rat thoracic aorta contracted with 40 mM potassium chloride (diltiazem); design: species or system rat (male SPRD); details: 40 mM KCl contracted strips, 37° C., read-out: IC50 (vascular relaxation in isolated rat thoracic aorta)
Experimental: Experiments were performed in thoracic aortas obtained from male SPRD rats weighing 250 to 300 g. Thoracic aortas excised from rats killed by decapitation and ensanguination were cleaned of fat and connective tissue, then were immediately placed in carbogenized TYRODE solution. The composition of the normal TYRODE solution was the following (in mM): NaCl 114.7, KCl 3.7, CaCl2 3.6, MgCl2 0.49, NaHCO3 19.9, NaH2 PO4 0.32, glucose 5.1.
Two mm wide and 20 to 25 mm long strips were cut from the aortas along a helical line at 45° angle. Aortic strips were mounted vertically between two cotton threads in 10 ml organ chambers, the lower threads were attached to the organ chambers and the upper threads were connected to isometric force transducers. The strips were incubated under 1 g resting tension at 37° C. for 120 minutes, then resting vascular tone was recorded. […]
When stable vascular tone developed, increasing doses of the test substance were added to the organ bath. The effects of each test substance were measured at least in 3 tissue preparations obtained from different animals. Decreases in vascular tension caused by the test substances were expressed as percentage changes and IC50 for each tissue preparation was determined by sigmoid (in few casses linear) curve fitting. […]

human beings = details: Ceulemans et al.; cited from earlier work

T1 sequence (P14842 whole entry): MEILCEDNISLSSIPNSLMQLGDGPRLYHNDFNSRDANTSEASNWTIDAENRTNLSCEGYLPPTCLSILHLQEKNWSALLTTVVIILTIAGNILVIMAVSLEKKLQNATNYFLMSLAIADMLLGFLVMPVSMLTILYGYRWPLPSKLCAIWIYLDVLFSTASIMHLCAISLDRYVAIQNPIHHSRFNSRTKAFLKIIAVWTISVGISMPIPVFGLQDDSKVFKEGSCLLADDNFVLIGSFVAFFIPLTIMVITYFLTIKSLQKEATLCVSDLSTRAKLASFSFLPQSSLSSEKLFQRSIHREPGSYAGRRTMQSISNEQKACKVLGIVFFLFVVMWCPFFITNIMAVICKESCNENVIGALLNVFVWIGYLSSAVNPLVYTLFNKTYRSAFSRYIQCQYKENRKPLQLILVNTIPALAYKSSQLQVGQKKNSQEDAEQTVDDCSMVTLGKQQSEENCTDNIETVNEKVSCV

SMILES | Ki (5-HT2A receptor) [nM] | Ki (5-HT2C receptor) [nM] | IC50 [1] [nM] | treatment of different forms of human anxiety (human beings)
CN(C)CCCOc1ccccc1-c1nnc(-n2nc(N3CCCC3)nc2N)s1 [Example 44, 2-(5-Amino-3-pyrrolidino-1H-1,2,4-triazole-1-yl)-5-/ 2-(3-dimethylaminopropoxy)phenyl/-1,3,4-thiadiazole] | > 100 | 50 | – | –
COc1ccc(CCN(C)CCCOc2ccccc2-c2nnc(-n3nc(SC)nc3N)s2)cc1OC [Example 98, 2-(5-Amino-3-methylthio-1H-1,2,4-triazole-1-yl)-5-{2-[3-methyl-3-/ 2-(3,4-dimethoxyphenylethyl)amino/propoxy]phenyl}-1,3,4-thiadiazole] | > 1000 | 24 | – | –
COc1ccc([C@@H]2Sc3ccccc3N(CCN(C)C)C(=O)[C@@H]2OC(C)=O)cc1 [diltiazem, (2S)-cis-3-acetyloxy-5-(2-dimethylamino-ethyl)-2,3-dihydro-2-(4-methoxyphenyl)-1,5-benzothiazepine-4(5H)-one] | – | – | 150 | –
Cc1nc2sccn2c(=O)c1CCN1CCC(=C(c2ccc(F)cc2)c2ccc(F)cc2)CC1 [ritanserin, 6-[2-/4-bis(4-fluorophenyl)-methylene/ -1-piperidinylethyl]-7-methyl-5H-thiazolo/3,2-a/pyrimidine-5-one] | – | – | – | proved to be effective for the treatment of different forms of human anxiety
